Results published in ChEMBL document CHEMBL3885861, “Open TG-GATES”.

Organism: Rattus norvegicus
Test: Open TG-GATES - Regimen: Daily Repeat
Format: toxicity, organism-based, Sprague-Dawley
Parameters: regimen Daily Repeat, gender Male, age 6 weeks
Conditions: in vivo, po, route gavage; for APTT / Bas / Eos / Fbg / Hb / Ht / Lym / MCH / MCHC / MCV / Mono / Neu / PT / Plat / RBC / Ret / WBC: tissue Blood; for KIDNEY_L / KIDNEY_R / KIDNEY_TOTAL: tissue Kidney; for LIVER: tissue Liver; for A/G / ALP / ALT / AST / BUN / CRE / Ca / Cl / DBIL / GLC / IP / K / LDH / Na / PL / RALB / TBIL / TC / TG / TP / gamma-GTP: tissue Plasma
[1] = 30 mg/kg, 72 h, dose level Middle, time 3 day
[2] = 30 mg/kg, […], dose level Middle, time 7 day
[3] = 30 mg/kg, […], dose level Middle, time 14 day
[4] = 30 mg/kg, […], dose level Middle, time 28 day
[5] = 100 mg/kg, 72 h, dose level High, time 3 day
[6] = 100 mg/kg, […], dose level High, time 7 day
[7] = 100 mg/kg, […], dose level High, time 14 day
[8] = 100 mg/kg, […], dose level High, time 28 day

## Nc1ccc(Cc2ccc(N)cc2)cc1
[1]
  TERMINAL_BW: 240.8 g
  APTT: 13.8 s
  Bas: 0%
  Eos: 1%
  Fbg: 295.8 mg/dL
  Hb: 13.3 g/dL
  Ht: 39.3%
  Lym: 72.6%
  MCH: 20.5 pg
  MCHC: 33.8%
  MCV: 60.6 fL
  Mono: 2.6%
  Neu: 23%
  PT: 11.4 s
  Plat: 133.5 x10_4/uL
  RBC: 649.4 x10_4/ul
  Ret: 5.6%
  WBC: 112 x10_2/uL
  KIDNEY_L: 1 g
  KIDNEY_R: 1 g
  KIDNEY_TOTAL: 2 g
  LIVER: 12.3 g
  A/G: 0.8
  ALP: 1785.8 IU/L
  ALT: 59.4 IU/L
  AST: 104 IU/L
  BUN: 14.6 mg/dL
  CRE: 0.2 mg/dL
  Ca: 11.1 mg/dL
  Cl: 105.6 meq/L
  DBIL: 0.022 mg/dL
  GLC: 159.2 mg/dL
  IP: 7.5 mg/dL
  K: 4.2 meq/L
  LDH: 89.2 IU/L
  Na: 143.4 meq/L
  PL: 160 mg/dL
  RALB: 2.6 g/dL
  TBIL: 0.05 mg/dL
  TC: 95.8 mg/dL
  TG: 83.4 mg/dL
  TP: 5.8 g/dL
  gamma-GTP: 2 IU/L
[2]
  TERMINAL_BW: 277.9 g
  APTT: 14.2 s
  Bas: 0.2%
  Eos: 0.8%
  Fbg: 286 mg/dL
  Hb: 13.7 g/dL
  Ht: 39.1%
  Lym: 71.6%
  MCH: 20.6 pg
  MCHC: 34.9%
  MCV: 59.1 fL
  Mono: 2.8%
  Neu: 23.8%
  PT: 11.4 s
  Plat: 147.7 x10_4/uL
  RBC: 663 x10_4/ul
  Ret: 5.2%
  WBC: 101.6 x10_2/uL
  KIDNEY_L: 1.1 g
  KIDNEY_R: 1.1 g
  KIDNEY_TOTAL: 2.2 g
  LIVER: 13.2 g
  A/G: 0.8
  ALP: 1631.6 IU/L
  ALT: 37 IU/L
  AST: 68 IU/L
  BUN: 17.4 mg/dL
  CRE: 0.2 mg/dL
  Ca: 11.2 mg/dL
  Cl: 105.2 meq/L
  DBIL: 0.026 mg/dL
  GLC: 173.6 mg/dL
  IP: 7.4 mg/dL
  K: 4.1 meq/L
  LDH: 85.2 IU/L
  Na: 143 meq/L
  PL: 145 mg/dL
  RALB: 2.7 g/dL
  TBIL: 0.064 mg/dL
  TC: 81 mg/dL
  TG: 125.2 mg/dL
  TP: 6 g/dL
  gamma-GTP: 1.2 IU/L
[3]
  TERMINAL_BW: 333.9 g
  APTT: 15.3 s
  Bas: 0.2%
  Eos: 0.6%
  Fbg: 273.6 mg/dL
  Hb: 13.7 g/dL
  Ht: 39.6%
  Lym: 75%
  MCH: 20.1 pg
  MCHC: 34.7%
  MCV: 57.9 fL
  Mono: 2.2%
  Neu: 21.2%
  PT: 11.8 s
  Plat: 141.9 x10_4/uL
  RBC: 684.8 x10_4/ul
  Ret: 4.6%
  WBC: 128.9 x10_2/uL
  KIDNEY_L: 1.2 g
  KIDNEY_R: 1.2 g
  KIDNEY_TOTAL: 2.4 g
  LIVER: 15.2 g
  A/G: 0.8
  ALP: 1617.2 IU/L
  ALT: 38.4 IU/L
  AST: 66.4 IU/L
  BUN: 15.6 mg/dL
  CRE: 0.2 mg/dL
  Ca: 10.9 mg/dL
  Cl: 105 meq/L
  DBIL: 0.016 mg/dL
  GLC: 190.6 mg/dL
  IP: 6.8 mg/dL
  K: 3.7 meq/L
  LDH: 71.8 IU/L
  Na: 143.2 meq/L
  PL: 141.2 mg/dL
  RALB: 2.6 g/dL
  TBIL: 0.054 mg/dL
  TC: 72.8 mg/dL
  TG: 96.8 mg/dL
  TP: 6.1 g/dL
  gamma-GTP: 1 IU/L
[4]
  TERMINAL_BW: 429.1 g
  APTT: 17.1 s
  Bas: 0.8%
  Eos: 1%
  Fbg: 273.4 mg/dL
  Hb: 14.9 g/dL
  Ht: 41.7%
  Lym: 76.8%
  MCH: 19.8 pg
  MCHC: 35.7%
  MCV: 55.5 fL
  Mono: 2.2%
  Neu: 19%
  PT: 11.9 s
  Plat: 109.8 x10_4/uL
  RBC: 752 x10_4/ul
  Ret: 2.7%
  WBC: 131.8 x10_2/uL
  KIDNEY_L: 1.4 g
  KIDNEY_R: 1.4 g
  KIDNEY_TOTAL: 2.9 g
  LIVER: 19.2 g
  A/G: 0.7
  ALP: 1167.6 IU/L
  ALT: 38.6 IU/L
  AST: 66.2 IU/L
  BUN: 15.4 mg/dL
  CRE: 0.2 mg/dL
  Ca: 11.1 mg/dL
  Cl: 104.8 meq/L
  DBIL: 0.024 mg/dL
  GLC: 178.6 mg/dL
  IP: 6.1 mg/dL
  K: 4 meq/L
  LDH: 74.6 IU/L
  Na: 145.2 meq/L
  PL: 141.6 mg/dL
  RALB: 2.6 g/dL
  TBIL: 0.062 mg/dL
  TC: 73.6 mg/dL
  TG: 110.4 mg/dL
  TP: 6.4 g/dL
  gamma-GTP: 1 IU/L
[5]
  TERMINAL_BW: 208.1 g
  APTT: 17.9 s
  Bas: 0.6%
  Eos: 1%
  Fbg: 405.8 mg/dL
  Hb: 12.8 g/dL
  Ht: 35.9%
  Lym: 66.8%
  MCH: 19.9 pg
  MCHC: 35.8%
  MCV: 55.5 fL
  Mono: 6.2%
  Neu: 25.2%
  PT: 12 s
  Plat: 166 x10_4/uL
  RBC: 646 x10_4/ul
  Ret: 4.3%
  WBC: 223.6 x10_2/uL
  KIDNEY_L: 1 g
  KIDNEY_R: 1 g
  KIDNEY_TOTAL: 2 g
  LIVER: 11.6 g
  A/G: 0.6
  ALP: 3437 IU/L
  ALT: 290.2 IU/L
  AST: 509.2 IU/L
  BUN: 12.6 mg/dL
  CRE: 0.2 mg/dL
  Ca: 11.3 mg/dL
  Cl: 103.8 meq/L
  DBIL: 1.3 mg/dL
  GLC: 145.2 mg/dL
  IP: 7.3 mg/dL
  K: 4.7 meq/L
  LDH: 160.6 IU/L
  Na: 141.6 meq/L
  PL: 325.8 mg/dL
  RALB: 2.3 g/dL
  TBIL: 2.7 mg/dL
  TC: 221 mg/dL
  TG: 69.4 mg/dL
  TP: 5.9 g/dL
  gamma-GTP: 7.8 IU/L
[6]
  TERMINAL_BW: 235.7 g
  APTT: 17.6 s
  Bas: 0.6%
  Eos: 0.6%
  Fbg: 273.8 mg/dL
  Hb: 12.4 g/dL
  Ht: 34.8%
  Lym: 66.6%
  MCH: 19.7 pg
  MCHC: 35.6%
  MCV: 55.2 fL
  Mono: 5.8%
  Neu: 25.8%
  PT: 12.5 s
  Plat: 193.4 x10_4/uL
  RBC: 631 x10_4/ul
  Ret: 7.9%
  WBC: 238.1 x10_2/uL
  KIDNEY_L: 1 g
  KIDNEY_R: 1 g
  KIDNEY_TOTAL: 2 g
  LIVER: 13.1 g
  A/G: 0.6
  ALP: 3310.8 IU/L
  ALT: 96.2 IU/L
  AST: 198.8 IU/L
  BUN: 13 mg/dL
  CRE: 0.2 mg/dL
  Ca: 11.6 mg/dL
  Cl: 103.8 meq/L
  DBIL: 0.9 mg/dL
  GLC: 148.4 mg/dL
  IP: 6.9 mg/dL
  K: 4.4 meq/L
  LDH: 95 IU/L
  Na: 143.6 meq/L
  PL: 213.6 mg/dL
  RALB: 2.4 g/dL
  TBIL: 1.7 mg/dL
  TC: 135 mg/dL
  TG: 48.6 mg/dL
  TP: 6.1 g/dL
  gamma-GTP: 6 IU/L
[7]
  TERMINAL_BW: 264.2 g
  APTT: 21.7 s
  Bas: 1%
  Eos: 1%
  Fbg: 292.2 mg/dL
  Hb: 11.9 g/dL
  Ht: 33.6%
  Lym: 69.4%
  MCH: 19.8 pg
  MCHC: 35.4%
  MCV: 56 fL
  Mono: 5.6%
  Neu: 22.8%
  PT: 13 s
  Plat: 166.6 x10_4/uL
  RBC: 601.8 x10_4/ul
  Ret: 8.1%
  WBC: 308 x10_2/uL
  KIDNEY_L: 1 g
  KIDNEY_R: 1.1 g
  KIDNEY_TOTAL: 2.1 g
  LIVER: 16.2 g
  A/G: 0.5
  ALP: 2423.6 IU/L
  ALT: 91.4 IU/L
  AST: 260 IU/L
  BUN: 17.6 mg/dL
  CRE: 0.2 mg/dL
  Ca: 11.4 mg/dL
  Cl: 103.6 meq/L
  DBIL: 0.7 mg/dL
  GLC: 143.6 mg/dL
  IP: 6.4 mg/dL
  K: 4.1 meq/L
  LDH: 143.8 IU/L
  Na: 143.6 meq/L
  PL: 226.4 mg/dL
  RALB: 2.5 g/dL
  TBIL: 1.6 mg/dL
  TC: 165.4 mg/dL
  TG: 49.6 mg/dL
  TP: 7 g/dL
  gamma-GTP: 8 IU/L
[8]
  TERMINAL_BW: 273.7 g
  APTT: 37.8 s
  Bas: 0.8%
  Eos: 1%
  Fbg: 275.8 mg/dL
  Hb: 12.1 g/dL
  Ht: 33.5%
  Lym: 67.2%
  MCH: 18.4 pg
  MCHC: 36.1%
  MCV: 51.2 fL
  Mono: 4%
  Neu: 26.6%
  PT: 15.2 s
  Plat: 121.3 x10_4/uL
  RBC: 654 x10_4/ul
  Ret: 5.8%
  WBC: 304.5 x10_2/uL
  KIDNEY_L: 1.1 g
  KIDNEY_R: 1 g
  KIDNEY_TOTAL: 2.1 g
  LIVER: 14.1 g
  A/G: 0.5
  ALP: 3009.6 IU/L
  ALT: 116.6 IU/L
  AST: 300 IU/L
  BUN: 19.2 mg/dL
  CRE: 0.3 mg/dL
  Ca: 11.5 mg/dL
  Cl: 102 meq/L
  DBIL: 0.6 mg/dL
  GLC: 144 mg/dL
  IP: 5.6 mg/dL
  K: 4 meq/L
  LDH: 108.6 IU/L
  Na: 146.2 meq/L
  PL: 158.4 mg/dL
  RALB: 2.5 g/dL
  TBIL: 1.7 mg/dL
  TC: 113.4 mg/dL
  TG: 33.2 mg/dL
  TP: 7.6 g/dL
  gamma-GTP: 7.2 IU/L
